# Patent US20050014647A1, “Method and composition for determining resistance to an acetohydroxy-acid synthase inhibitor” (priority 2001, published 2005)
# Where “and” joins values, the source holds several entries; their conditions need not be identical. Equal entries are not always repeated.
# What was measured:
# Assay type in all cases: cell-based
# [1] = tested on: AHAS; assay: in vivo AHAS assay, canola leaf discs with external supplement; conditions: canola, 14 hours; for % of 0/0 / OD 530, Avg. of the treated discs / OD 530, Treated: replicates 1-3; for OD 530, Treated: single treated discs; for % of No Alaninor Pyruvate: Alanine 0 %
# Experimental: The procedure for the preparation of an in vivo AHAS assay is described below:
# For the experiments, plants are grown from seed in soil in a greenhouse. Most experiments used wild type and imidazolinone resistant varieties of wheat, canola, rice, sunflower, and maize.
# For the assay, a a microtiter plate is set up with 100 μl of one of the following solutions in each well: • a. Solution A: 10 mM phosphate buffer, pH 6; 10% Murashige and Skoog basal mineral salts (according to Murashige, T. and Skoog, F., Physiol. Plant., 15 473-497 (1962)); 500 μM CPCA (cyclopropyldicarboxylic acid); • b. Solution B: Solution A+alanine (or other supplements); • c. Solution C: Solution A+a pyruvate salt (or other supplements).
# Plant material is excised from the newest emerging, rapidly growing leaf or stem from the test plant and placed in one of the microtiter plates. Usually, 5 mm leaf discs are cut from the newest emerging leaf. At least 2 discs per plant are cut. One disc is put in a well with Solution A and the other disc in a well with one of the other Solutions B or C (what solution are you using for background?).
# After all wells in the microtiter plate contain plant material, the plate is covered with the microtiter plate cover and the plate with material is placed in a chamber with continuous fluorescent lights for 12 to 16 hours. The incubation is stopped by placing the plate in −20° C. freezer. After tissue and solutions freeze, the plate is thawed at room temperature and 25 μL of 5% sulfuric acid are added to each well. After incubation at 60° C. for 15 minutes, 175 μL of a freshly prepared mixture of α-naphthol (2.5%) and creatine (0.25%) in 2 N NaOH are added to each well and the plate is incubated at 60° C. for 15 minutes.
# 200 μL from each well are transferred to a new plate and OD530 on microtiter plate is readed by a spectrophotometer.
# [2] = tested on: AHAS; assay: AHAS assay of resistant and non-resistant crops, wheat leaf slices; parameters: dose or concentration left out as unconfirmed; conditions: imazamox and CPCA, average of four plants
# Experimental: (§1) For the experiments, plants are grown from seed in soil in a greenhouse. The experiments used wild type and imidazolinone resistant varieties of maize and wheat.
# (§2) For the assay, a microtiter plate is set up with […] of one of the following solutions in each well: • Solution A: 10 mM phosphate buffer (pH 4.4), 10% prepared Murashige and Skoog basal mineral salt stock solution, 0.5% (w/v) alanine, 50 mM pyruvate salt, and 0.5 mM CPCA (cyclopropyldicarboxylic acid); • Solution B: Solution A+0.0025 mM imazamox; • Solution C: Solution A without 0.5 mM CPCA
# (§3) Plant material is excised from the newest emerging leaf for wheat or rapidly growing stem for maize from the test plant and placed in one of the microtiter plates. Usually, 3 to 5 mm slices are cut from the newest emerging leaf or stem. At least 3 same-length slices per plant are cut. One disc is put in a well with Solution A, one in a well with Solution B, and the last one in a well with Solution C.
# (§4) After all wells in the microtiter plate contain plant material, the plate is covered with a plate cover and is placed under continuous fluorescent lights for 14 to 18 hours. The incubation is stopped by placing the plate in a −20° C. freezer. After tissue and solutions freeze, the plate is thawed at room temperature, and […] of 5% sulfuric acid is added to each well. After incubation at 60° C. for 15 minutes, […] of a freshly prepared mixture of α-naphthol (2.5%, w/v) and creatine (0.25%, w/v) in 2 N NaOH are added to each well and the plate is incubated at 60° C. for 15 minutes.
# (§5) A 190 μl solution from each well is transferred to a new plate, and OD530 on microtiter plate is readed by a spectrophotometer.
# (§6) AHAS activity of each plant is determined by the following formula: (OD530 of well B−OD530 of well C)/(OD530 of well A−OD530 of well C).
# [3] = tested on: AHAS; assay: AHAS assay of resistant and non-resistant crops, maize stem slices; parameters: dose or concentration left out as unconfirmed; conditions: imazamox and CPCA, average of four plants
# Experimental: as §1, §2, §3, §4, §5, §6
structure (smiles),measurement,setting,value
"NC(=O)C[C@H](N)C(=O)O [Asparagine, L-asparagine]",% of 0/0,[1]; Asparagine (100 mM),107% and 141% and 91%
same,"OD 530, Avg. of the treated discs",[1]; Asparagine (100 mM),1.384 and 0.796 and 1.206
same,"OD 530, Treated",[1]; Asparagine (100 mM),1.011 and 0.718 and 1.279 and 1.343 and 0.880 and 1.094 and 1.843 and 0.907 and 1.186
"CC(=O)C(=O)O [Pyruvate, Na-Pyruvate]",% of No Alaninor Pyruvate,[1]; Pyruvate 25 mM,110%
same,% of No Alaninor Pyruvate,[1]; Pyruvate 50 mM,139%
same,% of No NH4 or Pyruvate,"[1]; NH4 0 mM, Pyruvate 6.25 mM",109%
same,% of No NH4 or Pyruvate,"[1]; NH4 0 mM, Pyruvate 12.5 mM",128%
same,% of No NH4 or Pyruvate,"[1]; NH4 0 mM, Pyruvate 25 mM",138%
same,% of No NH4 or Pyruvate,"[1]; NH4 0 mM, Pyruvate 50 mM",175%
same,% of 0/0,[1]; Pyruvate (100 mM),134% and 153% and 188%
same,"OD 530, Avg. of the treated discs",[1]; Pyruvate (100 mM),1.510 and 1.730 and 1.950
same,"OD 530, Treated",[1]; Pyruvate (100 mM),1.526 and 1.848 and 1.972 and 1.469 and 1.846 and 2.235 and 1.725 and 1.796 and 2.100
"N.O [NH4OH, ammonium hydroxide]",% of No NH4 or Pyruvate,"[1]; NH4 6.25 mM, Pyruvate 0 mM",101%
same,% of No NH4 or Pyruvate,"[1]; NH4 12.5 mM, Pyruvate 0 mM",138%
same,% of No NH4 or Pyruvate,"[1]; NH4 25 mM, Pyruvate 0 mM",128%
same,% of No NH4 or Pyruvate,"[1]; NH4 50 mM, Pyruvate 0 mM",142%
same,% of 0/0,[1]; NH4OH (50 mM),113% and 111% and 157%
same,"OD 530, Avg. of the treated discs",[1]; NH4OH (50 mM),0.697 and 0.886 and 1.386
same,"OD 530, Treated",[1]; NH4OH (50 mM),0.604 and 0.880 and 1.386 and 0.522 and 0.866 and 1.177 and 1.003 and 0.953 and 1.845
COCc1cnc(C2=NC(C)(C(C)C)C(=O)N2)c(C(=O)O)c1 (stereo not shown) [imazamox],Relative AHAS activity (%),[2]; Wheat variety CV 9804 (Moderate-resistance),22.4%
same,Relative AHAS activity (%),[2]; Wheat variety Riband (Non-resistance),1.5%
same,Relative AHAS activity (%),[2]; Wheat variety Teal 15A (High-resistance),57.7%
same,Relative AHAS activity (%),[3]; Maize variety Garst 8541 IT (Moderate-resistance),45.2%
same,Relative AHAS activity (%),[3]; Maize variety Pioneer 3395 IR (High-resistance),67.3%
same,Relative AHAS activity (%),[3]; Maize variety Pioneer 3514 (Non-resistance),5.8%
